Entries after “also recorded” stand apart in the source; their conditions may differ.
Experiments:
human M1 (hM1) [1] = molecular target: T1, human M1 (hM1) (Homo sapiens, UniProt P11229); experiment: hM1 PAM functional; type: cell-based; conditions: for hM1 PAM activity: tested up to 30 μM; for efficacy (% AChmax) compared with ML137: at the highest concentration tested of 30 μM; for pEC50: Table 2, hM1, mean ± SEM
T1 sequence (P11229 1-460): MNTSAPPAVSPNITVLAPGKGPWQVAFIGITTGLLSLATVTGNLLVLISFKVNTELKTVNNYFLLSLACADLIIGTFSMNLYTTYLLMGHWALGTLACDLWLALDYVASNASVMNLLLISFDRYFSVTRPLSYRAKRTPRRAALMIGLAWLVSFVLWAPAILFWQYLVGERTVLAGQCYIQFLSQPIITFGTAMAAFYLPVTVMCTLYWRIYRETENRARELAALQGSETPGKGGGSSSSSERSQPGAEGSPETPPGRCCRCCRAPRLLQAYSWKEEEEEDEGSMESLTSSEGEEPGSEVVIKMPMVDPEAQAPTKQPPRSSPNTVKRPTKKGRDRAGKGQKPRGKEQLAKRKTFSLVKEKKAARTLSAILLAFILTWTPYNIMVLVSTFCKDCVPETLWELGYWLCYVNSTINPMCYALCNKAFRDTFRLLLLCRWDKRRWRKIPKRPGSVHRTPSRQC

[2] = Chemical stability observation; type: physicochemical; conditions: presumed air oxidation or self-condensation
hM1 = molecular target: T2, hM1 (Homo sapiens, UniProt P11229); experiment: ACh fold-shift experiment; type: cell-based; conditions: ML137 to 14
T2 sequence (P11229 1-460): T1 sequence (P11229 1-460)

[3] = system: human muscarinic receptor subtypes; type: cell-based; conditions: hM1 over the other muscarinic receptor subtypes; Figure 4
human M1 (hM1) [4] = molecular target: T1, human M1 (hM1); conditions: cited from earlier work

hM1 PAM activity (human M1 (hM1) [1]) | SMILES | other results
loss of all PAM activity | Cn1cc(-c2ccc(Cn3ccccc3=O)c(F)c2)cn1 [Compound 24d] | –
no activity at all | Cn1cc(-c2ccc(CN3CCSc4ccccc43)c(F)c2)cn1 [Compound 24k] | –
weakly active | Cn1cc(-c2ccc(CN3C(=O)C(C)(N)c4ccccc43)c(F)c2)cn1 (stereo not shown) [Compound 23c] | –
inactive | CC(=O)N(Cc1ccc(-c2cnn(C)c2)cc1F)c1ccccc1 [Compound 17] | –
detrimental to activity | Cn1cc(-c2ccc(CN3C(=O)c4cccc5cccc3c45)c(F)c2)cn1 [Compound 18] | –
– | Cn1cc(-c2ccc(CN3c4ccccc4CS3(=O)=O)c(F)c2)cn1 [Compound 13] | efficacy (% AChmax) compared with ML137 (human M1 (hM1) [1]): comparable efficacy
– | Cn1cc(-c2ccc(CN3C(=O)C(N)c4ccccc43)c(F)c2)cn1 (stereo not shown) [Compound 23b] | increase in hM1 potency over 14 (human M1 (hM1) [1]; ratio of EC50 vs 14): 2 fold; chemical stability [2]: undesirable level of chemical instability
– | Cn1cc(-c2ccc(CN3C(=O)Cc4ccccc43)c(F)c2)cn1 [Compound 14] | decrease in hM1 PAM EC50 (potency) relative to ML137 (human M1 (hM1) [1]; ML137 to 14): 4 fold; efficacy (% AChmax) compared with ML137 (human M1 (hM1) [1]): comparable efficacy; improvement in ACh fold-shift relative to ML137 (hM1): 10 fold; muscarinic receptor subtype selectivity [3]: little-to-no erosion of muscarinic subtype selectivity; also recorded: very selective for the hM1 receptor
complete loss of activity | O=C1N(Cc2ccc(-c3cn[nH]c3)cc2F)c2ccccc2C1(O)C(F)(F)F (stereo not shown) [Compound 23m] | –
– | Cn1cc(-c2ccc(CN3C(=O)COc4ccccc43)c(F)c2)cn1 [Compound 24e] | pEC50 (human M1 (hM1) [1]): 5.29 ± 0.09
– | Cn1cc(-c2ccc(CN3C(=O)C(=O)c4ccccc43)c(F)c2)cn1 [ML137] | %AChmax previously reported (human M1 (hM1) [4]): 65%
– | Cn1cc(-c2ccc(CN3C(=O)C(C)(O)c4ccccc43)c(F)c2)cn1 (stereo not shown) [Compound 23e] | chemical stability [2]: stable
weakly active | CN(C)C1(C)C(=O)N(Cc2ccc(-c3cnn(C)c3)cc2)c2ccccc21 (stereo not shown) [Compound 23d] | –
complete loss of activity | CC(C)n1cc(-c2ccc(CN3C(=O)C(O)(C(F)(F)F)c4ccccc43)c(F)c2)cn1 (stereo not shown) [Compound 23l] | –
complete loss of activity | CCCn1cc(-c2ccc(CN3C(=O)C(O)(C(F)(F)F)c4ccccc43)c(F)c2)cn1 (stereo not shown) [Compound 23k] | –
– | Cn1cc(-c2ccc(CN3C(=O)CSc4ccccc43)c(F)c2)cn1 [Compound 24h] | pEC50 (human M1 (hM1) [1]): 5.49 ± 0.12

SMILES | hM1 PAM activity (human M1 (hM1) [1]) | other results
Cn1cc(-c2ccc(Cn3c(=O)[nH]c4ccccc43)c(F)c2)cn1 [Compound 15] | not tolerated | –
Cn1cc(-c2ccc(CN3CCc4ccccc43)c(F)c2)cn1 [Compound 16] | not tolerated | –

Source: paper PMC3534865 (Bioorganic & medicinal chemistry letters, 2012)
